One compound from patent US20210380683A1, “MODULATION OF IRF-4 AND USES THEREOF” (THE METHODIST HOSPITAL SYSTEM, priority 2018, published 2021) can be followed below.

The test relates to Balb/c heart allograft in WT B6 mice. The experiment in a line: Balb/c heart allograft survival in WT B6 recipients. It is filed as in vivo, mouse. To be noted: 3 mg/kg every other day from day 0 to day 12; WT B6 recipients of Balb/c hearts. The method, then:
Murine heterotopic heart transplantation. Heart transplantation in mice was performed by a previously described method (Miyahara et al., 2012; Chen et al., 2007). In brief, hearts from Balb/c donors were transplanted into 8 to 10-week-old male WT B6, Irf4^fl/flCd4-Cre, CD45.1+ congenic, or Rag1−/− recipient mice. Pulmonary artery and aorta of donor heart were cut open, remaining heart vessels were tied off, and heart was removed. […] Anastomosis was made by 11-0 sutures running continuously. 6-0 silk thread was removed, and abdomen was then closed by 5-0 sutures in two layers. Heart graft survival was monitored daily by palpation, and the day of complete cessation of heartbeat was considered as the day of rejection. Recipient mice were i.p. injected with Rat IgG, anti-PD-L1 (10F.9G2), anti-CTLA-4 (9D9), anti-CD4 (GK1.5), anti-CD8 (53-6.7), or anti-CD25 (PC-61.5.3) mAbs obtained from Bio-X-Cell (West Lebanon, N.H.), oral gavaged with trametinib (Selleck Chemicals, Houston, Tex.) or corn oil, or i.v. transferred with WT B6, Irf4^−/−, TEa, TEa Irf4^−/−, or IRF4 re-introduced Irf4^−/− T cells. At various days post-transplant, splenocytes and graft infiltrating cells were obtained for flow cytometry analysis, and allografts were sectioned and stained with hematoxylin and eosin for microscopic evaluation.

The structures appear in SMILES notation.

On to `CC(=O)Nc1cccc(-n2c(=O)n(C3CC3)c(=O)c3c(Nc4ccc(I)cc4F)n(C)c(=O)c(C)c32)c1` [trametinib], for which the “heart allograft survival (MST)” value came out at 13.17±0.75 days.
